Reference: patent publication US20050085524A1, “Pyrazolecarboxamides, intermediates therefor and pest control agent comprising the same as active ingredients” (NIHON NOHYAKU CO,. LTD., priority 2001, published 2005)

What was measured:
Format in all cases: in vivo
Erypsiphe graminis = experiment: Fungicidal and bactericidal effect on wheat powdery mildew (spray on potted wheat, then inoculation); conditions: 500 ppm, spray on wheat (Norin No.61), diseased leaf area after 7 to 10 days
Protocol: Compound (III) disclosed in JP-A-64-25763, tebufenpyrade and various compounds in accordance with the present invention were individually prepared into preparations in the same manner as in Formulation 3 The resulting preparations were diluted to given concentrations and sprayed on the stems and leave of a wheat plant (species: Norin No.61) at the one-leaf to 2-leaf stage as grown in a pot of a 6-cm diameter, at a ratio of 10-ml volume per one pot. After drying the chemical preparations in air, the wheat plant was exposed to the spore collected from wheat leave afflicted with Erypsiphe graminis as the microorganism causing wheat powdery mildew, for inoculation. Then, the plant was left to stand alone in a green house for 7 to 10 days.
Evaluation was carried out follows. The ratio of the diseased area of each leaf was examined to calculate the control ratio according to the following formula. The results are shown in Table 3 (in the table, Compound Nos. correspond to Compound Nos. in Table-1.) • Control ratio (%) • =[(mean ratio of diseased areas in non-treated lot) • −(mean ratio of diseased areas in treated lot)]× • ×100
/ (mean ratio of diseased areas in non-treated lot)

[1] = tested on: female adult Tetranychus urticae Koch; experiment: Miticidal effect on adult Tetranychus urticae Koch (Phaseolus leaf dip); conditions: leaf immersion, 25° C., five days after treatment
Protocol: The stem part of a Phaseolus seedling with one fresh first leaf remaining thereon was inserted in a test tube (a volume of 50 ml) containing water, where 15 female adult Tetranychus urticae Koch per one leaf was then inoculated. […] Five days after the treatment, the number of the female adult Tetranychus urticae Koch was counted on the Phaseolus leave, to calculate the adult death ratio (%) based on the above results. The results are shown in Table-6 (Compound Nos. in the table below correspond to Compound Nos. in Table-1).

Puccinia recondita = experiment: Fungicidal and bactericidal effect on wheat rust (spray on potted wheat seedling, then inoculation); conditions: 500 ppm, spray on wheat seedling (Norin No.61), diseased leaf area after 7 days
Protocol: Compound (III) disclosed in JP-A-64-25763 and various compounds in accordance with the present invention were individually prepared into preparations in the same manner as in Preparation 3. The resulting preparations were diluted to given concentrations and sprayed on the stems and leave of a wheat seedling (species: Norin No.61) at the one-leaf to 2-leaf stage as grown in a pot of a 6-cm diameter, at a ratio of 10-ml volume per one pot. After drying the chemical preparations in air, a spore suspension prepared by grinding the spore collected from wheat leave afflicted with Puccinia recondita as the microorganism causing wheat rust was sprayed on the wheat plant, for inoculation. Then, the plant was left to stand alone in a moist chamber at 22° C. for 15 hours. Subsequently, the plant was left to stand in a water pool in a green house for 7 days.
Evaluation was carried out by examining the ratio of the diseased area of each leaf to calculate the control ratio by the same method as in Test Example 1.
The results are shown in Table 4 (in the table, Compound Nos. correspond to Compound Nos, in Table-1.)

[2] = tested on: 3rd instar Spodoptera litura larvae; experiment: Effect on larvae of Spodoptera litura (cabbage leaf dip); conditions: foliar, 120 h, cabbage leaf immersed, 25° C., five days, agonizing insect counted as 0.5 death, read-out: Insecticide Activity (%)
Protocol: Compound (III) disclosed in JP-A-64-25763 and various compounds in accordance with the present invention were individually prepared into insecticide preparations according to the formulation of Formulation Example 1. The resulting insecticides of the present invention (hydrates) were diluted with water, where chopped cabbage leave (a diameter of 6 cm) were then immersed for one minute. After immersion and subsequent drying in air, the cabbage leave were placed in a plastic cup (inner diameter of 7 cm), where five larvae each of 3rd instar Spodoptera litura were left (twice in duplicate per one concentration). The plastic cup was kept in a thermostat at 25° C. Five days after the larvae were left in the plastic cup, the death and agony of these larvae were examined, to calculate the insecticide activity (%) while an agonizing insect was counted as 0.5 insect death. The results are shown in Table 5 (in the table, Compound Nos. correspond to Compound Nos. in Table-1.)

Compound: CCc1cc(C(=O)NCc2ccc(-c3ccc(OC(F)F)cc3)cc2)n(C)n1 [Compound No. 30, N-[4-(4-Difluoromethoxyphenyl)benzyl]-1-methyl-3-ethylpyrazole-5-carboxamide]
- Control Ratio (%) (Erypsiphe graminis): 100%
- Adult death ratio (%) ([1]; 500 ppm): 100%
- Control Ratio (%) (Puccinia recondita): 100%

Compound: CCCCCCCc1ccc(-c2ccc(CNC(=O)c3cc(CC)nn3C)cc2)cc1 [compound 13]
- Control Ratio (%) (Erypsiphe graminis): 100%

Compound: CCCCCc1ccc(-c2ccc(CNC(=O)c3cc(CC)nn3C)cc2)cc1 [Compound No. 11]
- Adult death ratio (%) ([1]; 500 ppm): 100%

Compound: CCc1cc(C(=O)NCc2ccc(-c3ccc(OC(C)C)cc3)cc2)n(C)n1 [compound 25]
- Control Ratio (%) (Erypsiphe graminis): 100%
- Control Ratio (%) (Puccinia recondita): 100%

Compound: Cc1nn(C)c(C(=O)NC(C)c2ccc(-c3ccccc3)cc2)c1Br (stereo not shown) [Compound (III)]
- Control Ratio (%) (Erypsiphe graminis): 0%
- Adult death ratio (%) ([1]; 500 ppm): 15%
- inhibition at 500 ppm [2]: 20%
- Control Ratio (%) (Puccinia recondita): 0%

Compound: Cn1nc2c(c1C(=O)NCc1ccc(-c3ccc(OC(F)(F)F)cc3)cc1)CCCC2 [compound 106]
- Adult death ratio (%) ([1]; 500 ppm): 100%

Compound: CCc1nn(C)c(C(=O)NCc2ccc(C(C)(C)C)cc2)c1Cl [tebufenpyrade]
- Control Ratio (%) (Erypsiphe graminis): 77%
- Adult death ratio (%) ([1]; 0.8 ppm): 0%
- Adult death ratio (%) ([1]; 3.1 ppm): 80%
- Adult death ratio (%) ([1]; 12.5 ppm): 100%
